In experiment [1] the test system is hiPS cells. Put plainly: Cell viability assay under adherence conditions (trypan blue live cell counting). The experiment is classed as cell-based, human. On the procedure:
hES or hiPS cells were plated at 1×10^5 cells/well on 12-well plates coated with PDL or Matrigel in mTeSR in the presence or absence of blebbistatin or Y-27632 at various concentrations in triplicates. DMSO (solvent for blebbistatin) was also added in the control condition and found to have no effect on viability. For mES cells, cells were plated under the same condition except for the use of gelatin coating and mES medium. After 24 h, cells were harvested, trypsinized to single cells, and counted by hemocytometer. Cell counting was performed independently by two researchers to confirm the consistency. The same samples were used for TUNEL assay immediately after taking a small fraction of the sample for cell counting.

In experiment [2] the test system is hiPS cells. Kind of experiment: Cell viability under suspension culture. As to conditions: hPS cells in suspension, 2 days, various concentrations. Type of experiment: cell-based, human. On the procedure:
For the evaluation of cell viability under suspension culture, hES or hiPS cells were plated at 5×10^5 in non-tissue culture-treated 6-well plates with non-conditioned standard hESm containing blebbistatin or Y-27632 at different concentrations in triplicates. After 2 days, cells were harvested with trypsinization and extensive trituration by pipetting, and the number of live cells was manually counted by using hemocytometer and trypan blue staining. The cell survival ratio (%) represents the ratio of the number of live cells to the number of cells plated. The same samples were subjected to TUNEL assay for side by side comparison with the data from cell viability assay.

Experiment [3] deals with hiPS cells. Kind of experiment: Cell growth assay (population doubling time). Type of experiment: cell-based, human. As to conditions: hiPS cells on PDL in mTeSR, compound at 5 μM. On the procedure:
For the cell growth assay, hiPS or hES cells were plated at 2.5×10^4 cells/cm^2 on plates coated with PDL or Matrigel in mTeSR in the presence of blebbistatin at 5 μM or Y-27632 at 5 μM (PDL) or in the absence of compounds (Matrigel). Cells were harvested at the indicated time points, stained with trypan blue, and counted by the hemocytometer.

Experiment [4] relates to mES cells. Put plainly: Cell-cell contact of mES cells (morphology, cell contact index). The experiment is classed as cell-based, mouse. The text has this:
Rho and Rho-associated kinase (Rock) play a role in regulation of cell-cell interactions in pluripotent stem cells. In order to further explore the core mechanism underlying cell-cell adhesions, principle regulators downstream of Rock were examined. Based on functional prescreening non-muscle myosin II was identified as an effector by siRNA-mediated loss of function analysis. Non-muscle Myosin II (myosin II), the two-headed conventional myosin, consists of non-muscle myosin II heavy chain (NMHC) dimers and two sets of myosin light chains (MLCs). […] Among them, all the genes except IIC are expressed in pluripotent stem cells whereas differentiated cells express all three isoforms. […] The specificity and levels of knockdown of the target genes by each siRNA were confirmed by quantitative RT-PCR (QPCR) (FIG. 2). Myosin phosphatase target subunit 1 (MYPT1), a major downstream target of Rock that negatively regulates myosin function through […] of myosin regulatory light chain (MRLC) was examined. MYPT1 was exclusively localized to cell-cell contact sites in mES cells (FIG. 1B). If Rock controls the myosin function through inhibition of MYPT1, depletion of MYPT1 would rescue the intrinsic cell-cell interactions from the robust effect of Y27632 (FIG. 1C).

Experiment [5] concerns hES cells. Kind of experiment: Cell-cell contact of hES cells (morphology, cell contact index). The experiment is classed as cell-based, human. As to conditions: hES cells grown on Matrigel. On the procedure: Rock and myosin II regulate cell-cell interactions in hES cells. To test whether the observed function of RRM signaling in cell-cell contacts in mES cells is conserved in hES cells, H1 cells grown under the feeder-free condition with Matrigel™ and conditioned medium (CM) (FIG. 3A) were treated with C3 exoenzyme. […] Rock-inhibitor treatment also led to cell adhesion defects although it required a higher concentration (20 μM) than that (10 μM) for mES cells (FIG. 3C). Myosin IIA and IIB were colocalized with cell-cell borders in hES cells, which indicates their potential role in cell-cell adhesions (FIG. 3D).

SMILES strings stand for the structures. “Also recorded” adds a separate entry of the source.

As for `O=S(=O)(c1cccc2c(I)cccc12)N1CCCNCC1` [ML-7], the “Effect on cell survival” value in experiment [1] (hiPS cells on PDL-coated dishes, different concentrations) was “No significant increase in cell survival”. In addition, the “Effect on survival in suspension culture” value in experiment [2] is on record as “did not show a significant effect on survival; also recorded: No difference in the survival rate”.

In the case of `C[C@@H](N)[C@H]1CC[C@H](C(=O)Nc2ccncc2)CC1` [Y-27632], the Population doubling time in experiment [3] was approximately 32.2 h. Further, the “Number of viable cells” value in experiment [1] (hiPS cells on PDL, 10 μM, 24 h after plating 1×10^5 cells/well, n=3) was 7.2±1.1×10^4 cells. The “Concentration that disassembled cell-cell junctions” value in experiment [4] is 10 µM; in experiment [5] it was 20 µM.
